Patent publication US4072685A, “3-(3',4'-Disubstituted) phenyl piperidines” (Roussel Uclaf, priority 1975, dated 1978)
Where a name gives a salt, the structure may show the parent alone.

Legend:
[1] = system: nigrostriatal bundle (dopaminergic activity); test: Rotating behavior after unilateral injury of nigrostriatal bundle, test (a): anodic lesion of right striatum; type: in vivo; details: i.p., male rats, 1 1/2 hours
Experimental: (§1) Among the animals having undergone a unilateral lesion of nigrostriatal bundle, the substances, having a dopaminergic activity induce a rotating behavior. The animals were male rats weighing about 250 g and female mice weighing about 22 g. The lesion was effected in test (a) in the right striatum of the male rats with a 2 mA anodic current for a duration of 30 seconds /Anden et al, Acta. Pharmacol. Toxicol., Vol. 24 (1966), p. 263-274/. The tested compounds were administered intraperitoneally to groups of 6 animals and they were individually placed in a rotometer which counted the number of rotations of each animal in two directions. Each test was continued for 11/2 hours.

[2] = Acute toxicity (50% lethal dose); details: mouse, in vivo, ip, mice, mortality 48 hours after administration
Experimental: The 50% lethal dose (LD50) was determined for the products after intraperitoneal administration to mice and the mortality was determined 48 hours after the administration of the tested product.

reserpinic rigidity = test: Antagonism against reserpinic rigidity (electromyogram provoked by dorsiflexion of the foot); type: in vivo, rats; set-up: key to Antagonism against reserpine: expressed in an increasing number of + as a function of the dose in mg/Kg; ++: expressed in an increasing number of + as a function of the dose in mg/Kg; +++: expressed in an increasing number of + as a function of the dose in mg/Kg; details: for Antagonism against reserpine: i.v., rats; for Antagonism against reserpinic rigidity, in words: results of Table I, Examples 5, 6 and 7 at a dose of 20 mg/kg
Experimental: The antagonism of the tested products against reserpinic rigidity was determined in rats using the procedure of Jurna I: Arch. Pharmak. Exp. Path., Vol. 260 (1968), p. 80-88 and the electromyogram (EMG) provoked by a dorsiflexion of the foot was determined with electrodes placed on the muscles of the anterior loge of the hind foot of the animal. A dose of 10 mg/Kg of reserpine was administered intraveinously and 30 minutes later when the muscle hypertonicity was maximal, the tested product was administered intraveinously at a dose of 10 or 20 mg/Kg. The electromyogram responses were determined before and after the administration of the tested compound and were compared for their intensity and duration.

[3] = system: nigrostriatal bundle (dopaminergic activity); test: Rotating behavior after unilateral injury of nigrostriatal bundle, test (b): 6-hydroxydopamine lesion of substantia nigra; type: in vivo; details: i.p., male rats, 1 1/2 hours
Experimental: as §1
In test (b) with the male rats, lesion was effected in the substantia nigra of each rat with 6-hydroxydopamine monohydrochloride at a dose of 20 μg per 4 μl of physiological serum containing 0.2 mg/ml of ascorbic acid by the method of Ungerstedt /Acta. physiol. scand., 1971 a, supp 367, p. 69-93/and the same conditions as in (a) were used.

[4] = system: nigrostriatal bundle (dopaminergic activity); test: Rotating behavior after unilateral injury of nigrostriatal bundle, test (c): striatum lesion by aspiration; type: in vivo; details: 100 mg/kg, i.p., female mice, observed for an hour
Experimental: as §1, with “Each test was continued for 11/2 hours.” left out
In test (c) with female mice, a lesion of the striatum was effected with a hypodermic needle with a diameter of 0.5 mm by aspiration under vacuum for 5 seconds with the method of Lotti /Life Science, Vol. 10 (1971) I, p. 781-789/.

carotid blood pressure = test: Hypotensive activity (carotid blood pressure, anesthetized rats); type: in vivo, male rats, Sprague-Dawley S.P.F.; details: i.v.
Experimental: The hypotensive activity was determined on male rats of the Sprague-Dawley S.P.F. strain weighing about 300 g and anesthesized with nembutal at an intraveinous dose of 50 mg/kg. The test product was administered intraveinously into the jugular vein and the carotid blood pressure was measured before and after the administration of the tested compound. The variation in the arterial pressure after the administration of the tested compound as compared to the initial arterial pressure as well as the time necessary for the pressure to return to the initial value were determined.

Row | SMILES | rotations, test (a) ([1]; 25 mg/kg) | LD50 at 48 h [2] | Antagonism against reserpine (reserpinic rigidity; 20 mg/kg) | rotations, test (b) ([3]; 25 mg/kg) | Antagonism against reserpinic rigidity, in words (reserpinic rigidity) | also measured
1 | CCN1CCCC(c2ccc(O)c(O)c2)C1 (stereo not drawn) [Example 3, N-ethyl-3-(3',4'-dihydroxyphenyl)-piperidine hydrobromide] | ipsilateral rotations | 150 mg/kg | + | contralateral rotations | – | –
2 | CC(C)N1CCCC(c2ccc(O)c(O)c2)C1 (stereo not drawn) [Example 9, N-isopropyl-3-(3',4'-dihydroxyphenyl)-piperidine hydrobromide] | – | 150 mg/kg | + | – | – | –
3 | CCCN1CCCC(c2ccc(O)c(O)c2)C1 (stereo not drawn) [Example 4, N-propyl-3-(3',4'-dihydroxyphenyl)-piperidine hydrobromide] | – | 150 mg/kg | + | – | – | –
4 | C=CCN1CCCC(c2ccc(O)c(O)c2)C1 (stereo not drawn) [Example 10, N-allyl-3-(3',4'-dihydroxyphenyl)-piperidine hydrobromide] | – | 150 mg/kg | – | contralateral rotations | – | –
5 | Oc1ccc(C2CCCN(Cc3ccccc3)C2)cc1O (stereo not drawn) [Example 5, N-benzyl-3-(3',4'-dihydroxyphenyl)-piperidine oxalate] | ipsilateral rotation | 150 mg/kg | +++ | contralateral rotations | very active | rotation, test (c) [4]: ipsilateral rotation
6 | CC(=O)Oc1ccc(C2CCCN(Cc3ccccc3)C2)cc1OC(C)=O (stereo not drawn) [Example 6, N-benzyl-3-(3',4'-diacetoxyphenyl)-piperidine oxalate] | ipsilateral rotation | 300 mg/kg | +++ | contralateral rotations | very active | duration of hypotension (carotid blood pressure; 10 mg/kg, hypotension of 20 to 30%): more than one hour; rotation, test (c) [4]: ipsilateral rotation
7 | CN1CCCC(c2ccc(O)c(O)c2)C1 (stereo not drawn) [Example 1, N-methyl-3-(3',4'-dihydroxyphenyl)-piperidine hydrobromide] | – | 150 mg/kg | ++ | – | – | –
8 | CCCN1CCCC(c2ccc(OC(C)=O)c(OC(C)=O)c2)C1 (stereo not drawn) [Example 8, N-propyl-3-(3',4'-diacetoxyphenyl)-piperidine oxalate] | ipsilateral rotations | 250 mg/kg | ++ | contralateral rotations | – | –
9 | Oc1ccc(C2CCCN(CCc3ccccc3)C2)cc1O (stereo not drawn) [Example 7, N-(β-phenylethyl)-3-(3',4'-dihydroxyphenyl)-piperidine fumarate] | – | 150 mg/kg | – | – | very active | rotations, test (a) ([1]; 10 mg/kg): ipsilateral rotations; Antagonism against reserpine (reserpinic rigidity; 10 mg/kg): ++; duration of hypotension (carotid blood pressure; 0.1 mg/kg, hypotension of 5 to 10%): 10 min; hypotension (carotid blood pressure; 1 mg/kg): 30%; duration of hypotension (carotid blood pressure; 1 mg/kg, hypotension of 30%): more than an hour; rotations, test (b) ([3]; 10 mg/kg): contralateral rotations
10 | CC(=O)Oc1ccc(C2CCCN(C)C2)cc1OC(C)=O (stereo not drawn) [Example 2, N-methyl-3-(3',4'-diacetoxyphenyl)-piperidine oxalate] | – | 150 mg/kg | ++ | – | – | –
